Assay results published in patent US20220279826A1, “OFF-FLAVOR SUPPRESSING AGENT” (AJINOMOTO CO., INC., priority 2019, published 2022).

Tests used:
[1] = Sensory evaluation in 0.007 wt % sucralose aqueous solution (Experimental Example 11); conditions: Table 25
Procedure: Each compound shown in the following Table 25 was added to a 0.007 wt % sucralose aqueous solution (an aqueous solution prepared by dissolving sucralose (0.007 parts by weight) in water (99.993 parts by weight)) so as to achieve the concentration (addition concentration) shown in the following Table 25 to prepare each evaluation sample.
(§1) Based on the following evaluation criteria, a panel of three experts determined by consensus the intensity of off-tastes (bitter taste, harsh taste, metallic taste) derived from sucralose in each evaluation sample, by comparison with a 0.007 wt % sucralose aqueous solution without addition of any compound (negative control).

[2] = Sensory evaluation in chicken broth solution with potassium chloride (Experimental Example 3); conditions: chicken broth solution with 0.8 wt % potassium chloride
Procedure: (§2) As shown in the following (1) to (3) below, 0.8 wt % of potassium chloride was added to a food base powder corresponding to 0.5 wt % of sodium chloride to prepare each base solution having an off-taste derived from potassium chloride.
Potassium chloride (0.8 g) was added to a commercially available powdered chicken broth mix (manufactured by Ajinomoto Co., Inc., trade name “Marutorigara Soup”) (1.0 g), hot water (98.2 g) was added to dissolve the mixture to prepare a base solution (chicken broth soup solution).
(§3) Each compound shown in the following Tables 15 to 17 was added to each base solution (ramen noodle soup solution, chicken broth solution, potage solution) so as to achieve the concentration (addition concentration) shown in the following Tables 15 to 17 to prepare each evaluation sample.
(§4) By a method similar to that in Experimental Example 1, a panel of two experts determined the intensity of off-tastes (bitter taste, metallic taste, harsh taste, astringent taste) derived from potassium chloride in each evaluation sample.

[3] = Sensory evaluation in 0.12 wt % aspartame aqueous solution (Experimental Example 12); conditions: Table 26
Procedure: Each compound shown in the following Table 26 was added to a 0.12 wt % aspartame aqueous solution (an aqueous solution prepared by dissolving aspartame (0.12 parts by weight) in ion exchange water (99.88 parts by weight)) so as to achieve the concentration (addition concentration) shown in the following Table 26 to prepare each evaluation sample.
as §1, with “aspartame” for “sucralose”, “0.12” for “0.007”

[4] = Sensory evaluation in stevia aqueous solution (Experimental Example 7); conditions: text summary of Table 21
Procedure: Each compound shown in the following Table 21 was added […] to an aqueous solution prepared by dissolving stevia (manufactured by PureCircle) ([…]) in ion exchange water (99.93 parts by weight) (hereinafter at times referred to as stevia aqueous solution) so as to achieve the concentration (addition concentration) shown in the following Table 21 to prepare each evaluation sample.
as §1, with “four” for “three”, “stevia” for “sucralose”, “stevia” for “0.007 wt % sucralose”

[5] = Sensory evaluation in granular fava bean protein (Experimental Example 16); conditions: Table 30
Procedure: Each compound shown in the following Table 30 was added to granular fava bean protein (manufactured by Schouten) so as to achieve the concentration (addition concentration) shown in the following Table 30 to prepare each evaluation sample.
as §1, with “four” for “three”, “astringent” for “metallic”, “fava bean protein” for “sucralose”, “granular fava bean protein” for “a 0.007 wt % sucralose aqueous solution”

[6] = Sensory evaluation in ramen noodle soup solution with potassium chloride (Experimental Example 3); conditions: for off-taste suppressing effect: Ramen noodle soup solution with 0.8 wt % potassium chloride; for intensity of off-tastes (bitter taste, metallic taste, harsh taste, astringent taste) derived from potassium chloride: base solutions of Tables 15 to 17 (ramen noodle soup, chicken broth, potage)
Procedure: as §2
Potassium chloride (0.8 g) was added to a soup powder (1.1 g) of a commercially available instant ramen noodle (manufactured by SANYO FOODS Co., Ltd., trade name “Sapporo Ichiban Shouyuaji”), hot water (98.1 g) was added to dissolve the mixture to prepare a base solution (ramen noodle soup solution).
as §3, §4

[7] = Sensory evaluation in pea protein aqueous solution (Experimental Example 8); conditions: text summary of Table 22
Procedure: Each compound shown in the following Table 22 was added to an aqueous solution prepared by dissolving powdered pea protein (6 parts by weight) and granulated sugar (4 parts by weight) in ion exchange water (90 parts by weight) (hereinafter at times referred to as pea protein aqueous solution) so as to achieve the concentration (addition concentration) shown in the following Table 22 to prepare each evaluation sample. Here, the powdered pea protein manufactured by Cosucra was used.
as §1, with “four” for “three”, “astringent” for “metallic”, “pea protein” for “sucralose”, “pea protein” for “0.007 wt % sucralose”

[8] = Sensory evaluation in Japanese noodle soup base solution with potassium chloride (0.2 g) (Experimental Example 5); conditions: for off-taste suppressing effect: Japanese noodle soup base solution, potassium chloride 0.2 g; for intensity of off-tastes (bitter taste, metallic taste, harsh taste, astringent taste) derived from potassium chloride: base solution of Table 19
Procedure: Potassium chloride (0.2 g) was added to a commercially available Japanese noodle soup base (manufactured by Yamaki Co., Ltd.) (11.1 g), and dissolved by adding hot water (88.7 g) to prepare a base solution.
Each compound shown in the following Table 19 was added to the base solution prepared above so as to achieve the concentration (addition concentration) shown in the following Table 19 to prepare each evaluation sample.
Based on the following evaluation criteria, a panel of two experts determined by consensus the intensity of off-tastes (bitter taste, metallic taste, harsh taste, astringent taste) derived from potassium chloride in each evaluation sample, by reference to each potassium chloride aqueous solution adjusted to 0.2 wt %, 0.15 wt % or 0.1 wt %.

[9] = Sensory evaluation in potage solution with potassium chloride (Experimental Example 3); conditions: Potage solution with 0.8 wt % potassium chloride
Procedure: as §2
Potassium chloride (0.8 g) was added to a commercially available powdered instant potage (manufactured by Ajinomoto Co., Inc., trade name “Knorr (registered trade mark) Cup Soup Potage”) (7.1 g), hot water (92.1 g) was added to dissolve the mixture to prepare a base solution (potage solution).
as §3, §4

[10] = Sensory evaluation in sodium acetate aqueous solution (Experimental Example 18); conditions: Table 33
Procedure: Each compound shown in the following Table 33 was added to an aqueous solution prepared by dissolving sodium acetate (1 part by weight) and acetic acid (0.3 parts by weight) in water (98.7 parts by weight) (hereinafter at times referred to as sodium acetate aqueous solution) so as to achieve the concentration (addition concentration) shown in the following Table 33 to prepare each evaluation sample.
as §1, with “four” for “three”, “astringent” for “metallic”, “sodium acetate” for “sucralose”, “sodium acetate” for “0.007 wt % sucralose”

[11] = addition concentration 10 ppb (1.25 weight ppm with respect to potassium chloride)
[12] = addition concentration 1 ppm (125 weight ppm with respect to potassium chloride)

Q: With `O=Cc1ccco1` [furfural, Furfural] as the molecule, how does the “intensity of off-tastes (bitter taste, harsh taste, metallic taste) derived from sucralose” value [1] read?
A: suppressed

Q: What about the off-taste suppressing effect [2, 11] of the same molecule?
A: +++ (intensity of the same level as potassium chloride aqueous solution with potassium chloride concentration of not less than 0.65 wt % and less than 0.7 wt %)

Q: And the “intensity of off-tastes (bitter taste, harsh taste, metallic taste) derived from aspartame” value [3]?
A: suppressed

Q: And the “intensity of off-tastes (bitter taste, harsh taste, metallic taste) derived from stevia” value [4]?
A: suppressed

Q: What about the “intensity of off-tastes (bitter taste, harsh taste, astringent taste) derived from fava bean protein” value [5] of the same molecule?
A: suppressed

Q: And the off-taste suppressing effect [6, 11]?
A: ++ (intensity of the same level as potassium chloride aqueous solution with potassium chloride concentration of not less than 0.7 wt % and less than 0.75 wt %)

Q: What about the “intensity of off-tastes (bitter taste, metallic taste, harsh taste, astringent taste) derived from potassium chloride” value (“intensity … from potassium chloride” for short) [6] of the same molecule?
A: decreased

Q: And the “intensity of off-tastes (bitter taste, harsh taste, astringent taste) derived from pea protein” value [7]?
A: suppressed

Q: What about the off-taste suppressing effect ([8]; addition concentration 50 weight ppb (25 weight ppm with respect to potassium chloride)) of the same molecule?
A: +++ (intensity of the same level as potassium chloride aqueous solution with potassium chloride concentration of less than 0.1 wt %)

Q: What about the “intensity … from potassium chloride” value [8] of the same molecule?
A: decreased

Q: What about the off-taste suppressing effect [9, 11] of the same molecule?
A: ++ (intensity of the same level as potassium chloride aqueous solution with potassium chloride concentration of not less than 0.7 wt % and less than 0.75 wt %)

Q: And the “intensity of off-tastes (bitter taste, harsh taste, astringent taste) derived from sodium acetate” value [10]?
A: suppressed

Q: With `CCC(=O)O` [propionic acid] as the molecule, how does the “intensity of off-tastes (bitter taste, harsh taste, metallic taste) derived from sucralose” value [1] read?
A: suppressed

Q: And the off-taste suppressing effect [2, 12]?
A: +++ (intensity of the same level as potassium chloride aqueous solution with potassium chloride concentration of not less than 0.65 wt % and less than 0.7 wt %)

Q: And the “intensity of off-tastes (bitter taste, harsh taste, metallic taste) derived from aspartame” value [3]?
A: suppressed

Q: What about the “intensity of off-tastes (bitter taste, harsh taste, metallic taste) derived from stevia” value [4] of the same molecule?
A: suppressed

Q: And the “intensity of off-tastes (bitter taste, harsh taste, astringent taste) derived from fava bean protein” value [5]?
A: suppressed

Q: What about the off-taste suppressing effect [6, 12] of the same molecule?
A: ++ (intensity of the same level as potassium chloride aqueous solution with potassium chloride concentration of not less than 0.7 wt % and less than 0.75 wt %)

Q: What about the “intensity … from potassium chloride” value [6] of the same molecule?
A: decreased

Q: And the “intensity of off-tastes (bitter taste, harsh taste, astringent taste) derived from pea protein” value [7]?
A: suppressed

Q: And the off-taste suppressing effect ([8]; addition concentration 1000 weight ppb (500 weight ppm with respect to potassium chloride))?
A: ++ (intensity of the same level as potassium chloride aqueous solution with potassium chloride concentration of not less than 0.1 wt % and less than 0.15 wt %)

Q: What about the “intensity … from potassium chloride” value [8] of the same molecule?
A: decreased

Q: What about the off-taste suppressing effect [9, 12] of the same molecule?
A: ++ (intensity of the same level as potassium chloride aqueous solution with potassium chloride concentration of not less than 0.7 wt % and less than 0.75 wt %)

Q: What about the “intensity of off-tastes (bitter taste, harsh taste, astringent taste) derived from sodium acetate” value [10] of the same molecule?
A: suppressed
